# Results as given in patent US20210267944A1 (BioXcel Therapeutics, Inc., priority 2018, published 2021).
# Where a name gives a salt, the structure may show the parent alone. Read-outs that look alike come from different tables or passages of the source.
# Conditions: opioid withdrawal patients
# Source text: The participants were continuously monitored by the site personnel, including blood pressure and heart rate, from the start of the infusion through resolution of sedation and/or any adverse effects on blood pressure or heart rate. An electrocardiogram was obtained at screening, pre-infusion and upon resolution of sedation, a predetermined reduction in COWS or return to baseline.
structure (smiles),measurement,setting,value
Cc1cccc([C@H](C)c2cnc[nH]2)c1C [dexmedetomidine hydrochloride],Diastolic blood pressure Max,"Day-1, 00:00 Hr",110 mm of Hg
same,Diastolic blood pressure Mean ± SD,"Day-1, 00:00 Hr",83.81 ± 12.99 mm of Hg
same,Diastolic blood pressure Median,"Day-1, 00:00 Hr",82 mm of Hg
same,Diastolic blood pressure Min,"Day-1, 00:00 Hr",64 mm of Hg
same,Heart rate Max,"Day-1, 00:00 Hr",106 beats/minutes
same,Heart rate Mean ± SD,"Day-1, 00:00 Hr",69.9 ± 16.37 beats/minutes
same,Heart rate Median,"Day-1, 00:00 Hr",66 beats/minutes
same,Heart rate Min,"Day-1, 00:00 Hr",55 beats/minutes
same,Diastolic blood pressure Max,"Day-1, 00:15 Hr",96 mm of Hg
same,Diastolic blood pressure Mean ± SD,"Day-1, 00:15 Hr",78.09 ± 9.99 mm of Hg
same,Diastolic blood pressure Median,"Day-1, 00:15 Hr",76 mm of Hg
same,Diastolic blood pressure Min,"Day-1, 00:15 Hr",62 mm of Hg
same,Heart rate Max,"Day-1, 00:15 Hr",86 beats/minutes
same,Heart rate Mean ± SD,"Day-1, 00:15 Hr",66.36 ± 11.9 beats/minutes
same,Heart rate Median,"Day-1, 00:15 Hr",67 beats/minutes
same,Heart rate Min,"Day-1, 00:15 Hr",49 beats/minutes
same,Diastolic blood pressure Max,"Day-1, 00:30 Hr",86 mm of Hg
same,Diastolic blood pressure Mean ± SD,"Day-1, 00:30 Hr",70 ± 8.8 mm of Hg
same,Diastolic blood pressure Median,"Day-1, 00:30 Hr",68 mm of Hg
same,Diastolic blood pressure Min,"Day-1, 00:30 Hr",59 mm of Hg
same,Heart rate Max,"Day-1, 00:30 Hr",84 beats/minutes
same,Heart rate Mean ± SD,"Day-1, 00:30 Hr",66.88 ± 12.26 beats/minutes
same,Heart rate Median,"Day-1, 00:30 Hr",70 beats/minutes
same,Heart rate Min,"Day-1, 00:30 Hr",52 beats/minutes
same,Diastolic blood pressure Max,"Day-1, 00:45 Hr",86 mm of Hg
same,Diastolic blood pressure Mean ± SD,"Day-1, 00:45 Hr",74.5 ± 7.67 mm of Hg
same,Diastolic blood pressure Median,"Day-1, 00:45 Hr",76 mm of Hg
same,Diastolic blood pressure Min,"Day-1, 00:45 Hr",61 mm of Hg
same,Heart rate Max,"Day-1, 00:45 Hr",89 beats/minutes
same,Heart rate Mean ± SD,"Day-1, 00:45 Hr",68.83 ± 14.91 beats/minutes
same,Heart rate Median,"Day-1, 00:45 Hr",66 beats/minutes
same,Heart rate Min,"Day-1, 00:45 Hr",50 beats/minutes
same,Diastolic blood pressure Max,"Day-1, 01:00 Hr",77 mm of Hg
same,Diastolic blood pressure Mean ± SD,"Day-1, 01:00 Hr",71.4 ± 6.05 mm of Hg
same,Diastolic blood pressure Median,"Day-1, 01:00 Hr",72 mm of Hg
same,Diastolic blood pressure Min,"Day-1, 01:00 Hr",60 mm of Hg
same,Heart rate Max,"Day-1, 01:00 Hr",85 beats/minutes
same,Heart rate Mean ± SD,"Day-1, 01:00 Hr",69.6 ± 11.35 beats/minutes
same,Heart rate Median,"Day-1, 01:00 Hr",66 beats/minutes
same,Heart rate Min,"Day-1, 01:00 Hr",54 beats/minutes
same,Diastolic blood pressure Max,"Day-1, 01:15 Hr",82 mm of Hg
same,Diastolic blood pressure Mean ± SD,"Day-1, 01:15 Hr",72 ± 8.16 mm of Hg
same,Diastolic blood pressure Median,"Day-1, 01:15 Hr",72 mm of Hg
same,Diastolic blood pressure Min,"Day-1, 01:15 Hr",62 mm of Hg
same,Heart rate Max,"Day-1, 01:15 Hr",76 beats/minutes
same,Heart rate Mean ± SD,"Day-1, 01:15 Hr",72 ± 2.82 beats/minutes
same,Heart rate Median,"Day-1, 01:15 Hr",70 beats/minutes
same,Heart rate Min,"Day-1, 01:15 Hr",70 beats/minutes
same,Diastolic blood pressure Max,"Day-1, 01:30 Hr",66 mm of Hg
same,Diastolic blood pressure Mean ± SD,"Day-1, 01:30 Hr",61 ± 5 mm of Hg
same,Diastolic blood pressure Median,"Day-1, 01:30 Hr",61 mm of Hg
same,Diastolic blood pressure Min,"Day-1, 01:30 Hr",56 mm of Hg
same,Heart rate Max,"Day-1, 01:30 Hr",61 beats/minutes
same,Heart rate Mean ± SD,"Day-1, 01:30 Hr",60.5 ± 0.5 beats/minutes
same,Heart rate Median,"Day-1, 01:30 Hr",60.5 beats/minutes
same,Heart rate Min,"Day-1, 01:30 Hr",60 beats/minutes
same,Diastolic blood pressure Max,"Day-1, 30 min. post Infusion",86 mm of Hg
same,Diastolic blood pressure Mean ± SD,"Day-1, 30 min. post Infusion",75.27 ± 9.22 mm of Hg
same,Diastolic blood pressure Median,"Day-1, 30 min. post Infusion",73 mm of Hg
same,Diastolic blood pressure Min,"Day-1, 30 min. post Infusion",60 mm of Hg
same,Heart rate Max,"Day-1, 30 min. post Infusion",99 beats/minutes
same,Heart rate Mean ± SD,"Day-1, 30 min. post Infusion",65.18 ± 14.03 beats/minutes
same,Heart rate Median,"Day-1, 30 min. post Infusion",62 beats/minutes
same,Heart rate Min,"Day-1, 30 min. post Infusion",50 beats/minutes
same,Diastolic blood pressure Max,"Day-1, Screening",108 mm of Hg
same,Diastolic blood pressure Mean ± SD,"Day-1, Screening",84.18 ± 13.13 mm of Hg
same,Diastolic blood pressure Median,"Day-1, Screening",81 mm of Hg
same,Diastolic blood pressure Min,"Day-1, Screening",63 mm of Hg
same,Heart rate Max,"Day-1, Screening",108 beats/minutes
same,Heart rate Mean ± SD,"Day-1, Screening",68.54 ± 15.32 beats/minutes
same,Heart rate Median,"Day-1, Screening",66 beats/minutes
same,Heart rate Min,"Day-1, Screening",55 beats/minutes
same,Diastolic blood pressure Max,"Day-2, 00:00 Hr",88 mm of Hg
same,Diastolic blood pressure Mean ± SD,"Day-2, 00:00 Hr",78.4 ± 7.86 mm of Hg
same,Diastolic blood pressure Median,"Day-2, 00:00 Hr",79 mm of Hg
same,Diastolic blood pressure Min,"Day-2, 00:00 Hr",69 mm of Hg
same,Heart rate Max,"Day-2, 00:00 Hr",94 beats/minutes
same,Heart rate Mean ± SD,"Day-2, 00:00 Hr",68.8 ± 13.94 beats/minutes
same,Heart rate Median,"Day-2, 00:00 Hr",63 beats/minutes
same,Heart rate Min,"Day-2, 00:00 Hr",55 beats/minutes
same,Diastolic blood pressure Max,"Day-2, 00:15 Hr",90 mm of Hg
same,Diastolic blood pressure Mean ± SD,"Day-2, 00:15 Hr",77.4 ± 9.91 mm of Hg
same,Diastolic blood pressure Median,"Day-2, 00:15 Hr",76 mm of Hg
same,Diastolic blood pressure Min,"Day-2, 00:15 Hr",62 mm of Hg
same,Heart rate Max,"Day-2, 00:15 Hr",85 beats/minutes
same,Heart rate Mean ± SD,"Day-2, 00:15 Hr",67.4 ± 12.35 beats/minutes
same,Heart rate Median,"Day-2, 00:15 Hr",61 beats/minutes
same,Heart rate Min,"Day-2, 00:15 Hr",53 beats/minutes
same,Diastolic blood pressure Max,"Day-2, 00:30 Hr",84 mm of Hg
same,Diastolic blood pressure Mean ± SD,"Day-2, 00:30 Hr",73.4 ± 8.54 mm of Hg
same,Diastolic blood pressure Median,"Day-2, 00:30 Hr",71 mm of Hg
same,Diastolic blood pressure Min,"Day-2, 00:30 Hr",61 mm of Hg
same,Heart rate Max,"Day-2, 00:30 Hr",93 beats/minutes
same,Heart rate Mean ± SD,"Day-2, 00:30 Hr",68.2 ± 5.54 beats/minutes
same,Heart rate Median,"Day-2, 00:30 Hr",58 beats/minutes
same,Heart rate Min,"Day-2, 00:30 Hr",54 beats/minutes
same,Diastolic blood pressure Max,"Day-2, 00:45 Hr",86 mm of Hg
same,Diastolic blood pressure Mean ± SD,"Day-2, 00:45 Hr",79 ± 7.68 mm of Hg
same,Diastolic blood pressure Median,"Day-2, 00:45 Hr",82 mm of Hg
same,Diastolic blood pressure Min,"Day-2, 00:45 Hr",66 mm of Hg
same,Heart rate Max,"Day-2, 00:45 Hr",97 beats/minutes
same,Heart rate Mean ± SD,"Day-2, 00:45 Hr",69 ± 16.80 beats/minutes
same,Heart rate Median,"Day-2, 00:45 Hr",63 beats/minutes
same,Heart rate Min,"Day-2, 00:45 Hr",53 beats/minutes
same,Diastolic blood pressure Max,"Day-2, 01:00 Hr",87 mm of Hg
same,Diastolic blood pressure Mean ± SD,"Day-2, 01:00 Hr",79.33 ± 7.58 mm of Hg
same,Diastolic blood pressure Median,"Day-2, 01:00 Hr",82 mm of Hg
same,Diastolic blood pressure Min,"Day-2, 01:00 Hr",69 mm of Hg
same,Heart rate Max,"Day-2, 01:00 Hr",94 beats/minutes
same,Heart rate Mean ± SD,"Day-2, 01:00 Hr",72.66 ± 17.15 beats/minutes
same,Heart rate Median,"Day-2, 01:00 Hr",72 beats/minutes
same,Heart rate Min,"Day-2, 01:00 Hr",52 beats/minutes
same,Diastolic blood pressure Max,"Day-2, 01:15 Hr",101 mm of Hg
